Reference: patent US12077503B2, “Substituted cyclic amides and their use as herbicides” (FMC CORPORATION, priority 2015, dated 2024)

Assays:
Format in all cases: in vivo
[1] = test system: barnyardgrass (Echinochloa crus-galli); assay: Test A postemergence; details: Echinochloa crus-galli, post-emergence, 240 h; for pest or weed control at 125 g/ha: 125 g ai/ha, postemergence, visual injury on 0 to 100 scale (0 no effect, 100 complete control), approx. 10 d, read-out: Barnyardgrass plant response rating; for pest or weed control at 31 g/ha: Postemergence, 31 g ai/ha, visual injury after approx. 10 d, 0 to 100 scale, 0 no effect, 100 complete control, read-out: Plant response rating, Barnyardgrass
In short: (§1)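 Treatment is preemergence as a directed soil spray after planting, or postemergence at the one- to two-leaf stage, with test chemical in a non-phytotoxic solvent mixture plus surfactant. Plants stay in the greenhouse about 10 d before visual injury scoring on a 0 to 100 scale versus untreated controls.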

[2] = test system: pigweed (Amaranthus retroflexus); assay: Test A postemergence; details: Amaranthus retroflexus, post-emergence, 240 h; for pest or weed control at 125 g/ha: 125 g ai/ha, postemergence, visual injury on 0 to 100 scale (0 no effect, 100 complete control), approx. 10 d, read-out: Pigweed plant response rating; for pest or weed control at 31 g/ha: Postemergence, 31 g ai/ha, visual injury after approx. 10 d, 0 to 100 scale, 0 no effect, 100 complete control, read-out: Plant response rating, Pigweed
In short: as §1

[3] = test system: giant foxtail (Setaria faberii); assay: Test A postemergence; details: Setaria faberi, post-emergence, 240 h; for pest or weed control at 125 g/ha: 125 g ai/ha, postemergence, visual injury on 0 to 100 scale (0 no effect, 100 complete control), approx. 10 d, read-out: Foxtail, Giant plant response rating; for pest or weed control at 31 g/ha: Postemergence, 31 g ai/ha, visual injury after approx. 10 d, 0 to 100 scale, 0 no effect, 100 complete control, read-out: Plant response rating, Foxtail, Giant
In short: as §1

[4] = test system: ryegrass, Italian (Italian ryegrass, Lolium multiflorum); assay: Test A postemergence; details: Lolium multiflorum, post-emergence, 240 h; for pest or weed control at 125 g/ha: 125 g ai/ha, postemergence, visual injury on 0 to 100 scale (0 no effect, 100 complete control), approx. 10 d, read-out: Ryegrass, Italian plant response rating; for pest or weed control at 31 g/ha: Postemergence, 31 g ai/ha, visual injury after approx. 10 d, 0 to 100 scale, 0 no effect, 100 complete control, read-out: Plant response rating, Ryegrass, Italian
In short: as §1

corn (Zea mays) = assay: Test A postemergence; details: Zea mays, post-emergence, 240 h; for plant injury at 125 g/ha: 125 g ai/ha, postemergence, visual injury on 0 to 100 scale (0 no effect, 100 complete control), approx. 10 d, read-out: Corn plant response rating; for Corn plant response rating (crop injury, 0 = no effect, 100 = complete kill) at 31 g/ha: Postemergence, 31 g ai/ha, visual injury after approx. 10 d, 0 to 100 scale, 100 complete control
In short: as §1

[5] = test system: blackgrass (Alopecurus myosuroides); assay: Test A postemergence; details: Alopecurus myosuroides, post-emergence, 240 h; for pest or weed control at 125 g/ha: 125 g ai/ha, postemergence, visual injury on 0 to 100 scale (0 no effect, 100 complete control), approx. 10 d, read-out: Blackgrass plant response rating; for pest or weed control at 31 g/ha: Postemergence, 31 g ai/ha, visual injury after approx. 10 d, 0 to 100 scale, 0 no effect, 100 complete control, read-out: Plant response rating, Blackgrass
In short: as §1

[6] = test system: wheat (Triticum aestivum); assay: Test A postemergence; details: Triticum aestivum, post-emergence, 240 h; for plant injury at 125 g/ha: 125 g ai/ha, postemergence, visual injury on 0 to 100 scale (0 no effect, 100 complete control), approx. 10 d, read-out: Wheat plant response rating; for plant injury at 31 g/ha: Postemergence, 31 g ai/ha, visual injury after approx. 10 d, 0 to 100 scale, 0 no effect, 100 complete control, read-out: Plant response rating, Wheat
In short: as §1

[7] = test system: Galium (catchweed bedstraw, Galium aparine); assay: Test A postemergence; details: Galium, post-emergence, 240 h; for pest or weed control at 125 g/ha: 125 g ai/ha, postemergence, visual injury on 0 to 100 scale (0 no effect, 100 complete control), approx. 10 d, read-out: Galium plant response rating; for pest or weed control at 31 g/ha: Postemergence, 31 g ai/ha, visual injury after approx. 10 d, 0 to 100 scale, 0 no effect, 100 complete control, read-out: Plant response rating, Galium
In short: as §1

[8] = test system: ragweed (common ragweed, Ambrosia elatior); assay: Test A postemergence; details: Ambrosia artemisiifolia, post-emergence, 240 h; for pest or weed control at 125 g/ha: 125 g ai/ha, postemergence, visual injury on 0 to 100 scale (0 no effect, 100 complete control), approx. 10 d, read-out: Ragweed plant response rating; for pest or weed control at 31 g/ha: Postemergence, 31 g ai/ha, visual injury after approx. 10 d, 0 to 100 scale, 0 no effect, 100 complete control, read-out: Plant response rating, Ragweed
In short: as §1

Kochia (Kochia scoparia) [9] = assay: Test A postemergence; details: Bassia scoparia, post-emergence, 240 h; for pest or weed control at 125 g/ha: 125 g ai/ha, postemergence, visual injury on 0 to 100 scale (0 no effect, 100 complete control), approx. 10 d, read-out: Kochia plant response rating; for pest or weed control at 31 g/ha: Postemergence, 31 g ai/ha, visual injury after approx. 10 d, 0 to 100 scale, 0 no effect, 100 complete control, read-out: Plant response rating, Kochia
In short: as §1

[10] = test system: barnyardgrass (Echinochloa crus-galli); assay: Test A preemergence; details: Echinochloa crus-galli, pre-emergence, 240 h, 0 to 100 scale where 0 is no effect and 100 is complete control, read-out: Barnyardgrass plant response rating; for pest or weed control at 31 g/ha: 31 g ai/ha, Preemergence; for pest or weed control at 125 g/ha: 125 g ai/ha, preemergence, approx. 10 d
In short: as §1

[11] = test system: pigweed (Amaranthus retroflexus); assay: Test A preemergence; details: Amaranthus retroflexus, pre-emergence, 240 h, 0 to 100 scale where 0 is no effect and 100 is complete control, read-out: Pigweed plant response rating; for pest or weed control at 31 g/ha: 31 g ai/ha, Preemergence; for pest or weed control at 125 g/ha: 125 g ai/ha, preemergence, approx. 10 d
[12] = test system: giant foxtail (Setaria faberii); assay: Test A preemergence; details: Setaria faberi, pre-emergence, 240 h, 0 to 100 scale where 0 is no effect and 100 is complete control, read-out: Foxtail, Giant plant response rating; for pest or weed control at 31 g/ha: 31 g ai/ha, Preemergence; for pest or weed control at 125 g/ha: 125 g ai/ha, preemergence, approx. 10 d
In short: as §1

[13] = test system: ryegrass, Italian (Italian ryegrass, Lolium multiflorum); assay: Test A preemergence; details: Lolium multiflorum, pre-emergence, 240 h, 0 to 100 scale where 0 is no effect and 100 is complete control, read-out: Ryegrass, Italian plant response rating; for pest or weed control at 31 g/ha: 31 g ai/ha, Preemergence; for pest or weed control at 125 g/ha: 125 g ai/ha, preemergence, approx. 10 d
In short: as §1

[14] = test system: ragweed (common ragweed, Ambrosia elatior); assay: Test A preemergence; details: Ambrosia artemisiifolia, pre-emergence, 240 h, 0 to 100 scale where 0 is no effect and 100 is complete control, read-out: Ragweed plant response rating; for pest or weed control at 31 g/ha: 31 g ai/ha, Preemergence; for pest or weed control at 125 g/ha: 125 g ai/ha, preemergence, approx. 10 d
In short: as §1

Kochia (Kochia scoparia) [15] = assay: Test A preemergence; details: Bassia scoparia, pre-emergence, 240 h, 0 to 100 scale where 0 is no effect and 100 is complete control, read-out: Kochia plant response rating; for pest or weed control at 31 g/ha: 31 g ai/ha, Preemergence; for pest or weed control at 125 g/ha: 125 g ai/ha, preemergence, approx. 10 d
In short: as §1

[16] = test system: barnyardgrass (Echinochloa crus-galli); assay: Test B flooded paddy test; details: Echinochloa crus-galli, 250 g ai/ha, Flood; 0 to 100 scale where 0 is no effect and 100 is complete control; read-out: Barnyardgrass plant response rating
In short: (§2)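 Response scored visually against untreated controls, 0 = no effect and 100 = complete control, 13–15 d after treatment in the greenhouse. Compounds added to paddy water held 3 cm above soil surface. Treatment given at 2-leaf stage.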

[17] = test system: sedge, umbrella (small-flower umbrella sedge, Cyperus difformis); assay: Test B flooded paddy test; details: Cyperus difformis, 250 g ai/ha, Flood; 0 to 100 scale where 0 is no effect and 100 is complete control; read-out: Sedge, Umbrella plant response rating
In short: as §2

rice (Oryra sativa) = assay: Test B flooded paddy test; details: Oryza sativa, 250 g ai/ha, Flood; 0 to 100 scale where 0 is no effect and 100 is complete control; read-out: Rice plant response rating
In short: as §2

[18] = test system: ducksalad (Heteranthera limosa); assay: Test B flooded paddy test; details: Heteranthera limosa, 250 g ai/ha, Flood; 0 to 100 scale where 0 is no effect and 100 is complete control; read-out: Ducksalad plant response rating
In short: as §2

Row | Compound | pest or weed control at 125 g/ha [1] | pest or weed control at 31 g/ha [1] | pest or weed control at 125 g/ha [2] | pest or weed control at 31 g/ha [2] | pest or weed control at 125 g/ha [3] | pest or weed control at 31 g/ha [3] | pest or weed control at 125 g/ha [4] | pest or weed control at 31 g/ha [4] | plant injury at 125 g/ha (corn (Zea mays)) | Corn plant response rating (crop injury, 0 = no effect, 100 = complete kill) at 31 g/ha (corn (Zea mays)) | pest or weed control at 125 g/ha [5] | pest or weed control at 31 g/ha [5] | plant injury at 125 g/ha [6] | plant injury at 31 g/ha [6] | pest or weed control at 125 g/ha [7] | pest or weed control at 31 g/ha [7] | pest or weed control at 125 g/ha [8] | pest or weed control at 31 g/ha [8] | pest or weed control at 125 g/ha (Kochia (Kochia scoparia) [9]) | pest or weed control at 31 g/ha (Kochia (Kochia scoparia) [9]) | further results
1 | CN1C[C@H](c2cc(C(F)F)cs2)[C@@H](C(=O)Nc2ccc(F)c(F)c2F)C1=O [Compound 1083] | 90% | 90% | 20% | 0% | 90% | 80% | 20% | 0% | 40% | 20% | 60% | 50% | 40% | 40% | 70% | 60% | 30% | 0% | 40% | 20% | pest or weed control at 31 g/ha [10]: 90%; pest or weed control at 125 g/ha [10]: 100%; pest or weed control at 31 g/ha [11]: 0%; pest or weed control at 125 g/ha [11]: 20%; pest or weed control at 31 g/ha [12]: 100%; pest or weed control at 125 g/ha [12]: 100%; pest or weed control at 31 g/ha [13]: 20%; pest or weed control at 125 g/ha [13]: 60%; pest or weed control at 31 g/ha [14]: 0%; pest or weed control at 125 g/ha [14]: 80%; pest or weed control at 31 g/ha (Kochia (Kochia scoparia) [15]): 20%; pest or weed control at 125 g/ha (Kochia (Kochia scoparia) [15]): 90%; pest or weed control at 250 g/ha [16]: 90%; pest or weed control at 250 g/ha [17]: 0%; pest or weed control at 250 g/ha (rice (Oryra sativa)): 40%; pest or weed control at 250 g/ha [18]: 95%
2 | CN1C[C@H](c2cc(C(F)F)cs2)[C@@H](C(=O)Nc2ccccc2S(C)(=O)=O)C1=O [Compound 1084] | 60% | 10% | 0% | 0% | 50% | 0% | 0% | 0% | 0% | 0% | 20% | 0% | 20% | 0% | 0% | 0% | 0% | 0% | 30% | 0% | pest or weed control at 31 g/ha [10]: 0%; pest or weed control at 125 g/ha [10]: 70%; pest or weed control at 31 g/ha [11]: 0%; pest or weed control at 125 g/ha [11]: 0%; pest or weed control at 31 g/ha [12]: 30%; pest or weed control at 125 g/ha [12]: 100%; pest or weed control at 31 g/ha [13]: 0%; pest or weed control at 125 g/ha [13]: 10%; pest or weed control at 31 g/ha [14]: 0%; pest or weed control at 125 g/ha [14]: 10%; pest or weed control at 31 g/ha (Kochia (Kochia scoparia) [15]): 0%; pest or weed control at 125 g/ha (Kochia (Kochia scoparia) [15]): 20%; pest or weed control at 250 g/ha [16]: 75%; pest or weed control at 250 g/ha [17]: 0%; pest or weed control at 250 g/ha (rice (Oryra sativa)): 20%; pest or weed control at 250 g/ha [18]: 100%
